How the values were obtained:
[1] = system: HBV viral load in AD38 cells; test: Viral load production in AD38 cells, quantitative PCR of the core sequence in supernatant; format: cell-based; settings: 10 μM compound, 6 days at 37° C., supernatant qPCR, relative to DMSO control; for activity at 10 µM: Hepatitis B virus, 144 h, read-out: AD38 Viral Load (%) (VL with cmpd/VL in DMSO control) at 10 μM
[2] = system: AD38 cells; test: Viability of AD38 cells (Promega CellTiter-Glo); format: cell-based; settings: 10 μM compound, 6 days, CellTiter-Glo luminescence normalized to DMSO control (100%)
How it was run: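 AD38 cells were seeded at 50,000/well on collagen-coated plates and treated with compound added as a 10× solution in 10% DMSO for 6 days at 37° C. Viability was measured by CellTiter-Glo luminescence in tetracycline-free medium with 2% FBS and 1% DMSO, and expressed as percent of DMSO control.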

Structure (SMILES) | activity at 10 µM [1] [%] | AD38 Viability Normalized Result (cmpd/DMSO %) at 10 μM [2] [%] | AD38 Viral Load (%) (VL with cmpd/VL in DMSO control) at 10 μM [1]
CCN(CC)CC(O)COc1ccc(-c2ncc(CNC(=O)c3ccc4c(c3)NC(=O)c3ccccc3S4(=O)=O)s2)cc1 (centres unmarked) [compound 11086] | 4.7 | 88 | 
Cc1ncc(CNC(=O)c2ccc3c(c2)NC(=O)c2ccccc2[S+]3[O-])s1 (centres unmarked) [compound 1526] | 0.8 | 94 | 
Cc1cc2c(cc1C(=O)NCc1cnc(-c3ccc(C#N)cc3)s1)NC(=O)c1ccccc1S2(=O)=O [compound 1911] | 0.4 | 111 | 
O=C(NCc1cnc(-n2cc(C(F)(F)F)cn2)s1)c1ccc2c(c1)NC(=O)c1ccccc1S2(=O)=O [compound 11039] | 1.9 | 92 | 
Cl.NCc1cnc(-c2ncc(CNC(=O)c3ccc4c(c3)NC(=O)c3ccccc3S4)s2)s1 [compound 1735, N-((5′-(aminomethyl)-[2, 2′-bithiazol]-5-yl)methyl)-11-oxo-10, 11-dihydrodibenzo [b, f] [1, 4] thiazepine-8-carboxamide hydrochloride] | 3.1 | 92 | 
O=C(NCc1cnc(N2CCS(=O)(=O)CC2)s1)c1ccc2c(c1)NC(=O)c1ccccc1S2(=O)=O [compound 1860] | 7.5 | 98 | 
Cc1c(C(=O)NCc2cnc(-n3cccn3)s2)ccc2c1NC(=O)c1ccccc1S2(=O)=O [compound 11074] |  | 103 | 0.6
CN(C)CCOc1ccc(-c2ncc(CNC(=O)c3ccc4c(c3)NC(=O)c3ccccc3S4)s2)cc1 [compound 1608] | 12.4 | 98 | 
Cc1ncc(CNC(=O)c2ccc3c(c2)NC(=O)c2cc(Cl)ccc2S3)s1 [compound 1541] | 3.7 | 98 | 
O=C(Nc1ncc(Cl)s1)c1ccc2c(c1)NC(=O)c1ccccc1S2(=O)=O [compound 1473] | 26.5 | 79 | 
O=C(NCc1cnc(-c2ccc(OCCCN3CCCCC3)cc2)s1)c1ccc2c(c1)NC(=O)c1ccccc1O2 [compound 11160, 11-oxo-N-((2-(4-(3-(piperidin-1-yl)propoxy)phenyl)thiazol-5-yl)methyl)-10, 11-dihydrodibenzo [b, f] [1, 4] oxazepine-8-carboxamide] | 17.7 | 104 | 
CC(C)(C)OC(=O)N1CCC[C@@H]1COc1ccc(-c2ncc(CNC(=O)c3ccc4c(c3)NC(=O)c3ccccc3S4(=O)=O)s2)cc1 [11104-A, tert-butyl (R)-2-((4-(5-((5,5-dioxido-11-oxo-10, 11-dihydrodibenzo [b, f] [1, 4]thiazepine-8-carboxamido)methyl)thiazol-2-yl)phenoxy)methyl) pyrrolidine-1-carboxylate] | 0.9 | 74 | 
CN(C)CCOc1ccc(-c2ncc(CNC(=O)c3ccc4c(c3)NC(=O)c3ccccc3O4)s2)cc1 [compound 1621] | 25.9 | 81 | 
CC(=O)NCCCOc1ccc(-c2ncc(CNC(=O)c3ccc4c(c3)NC(=O)c3ccccc3S4(=O)=O)s2)cc1 [compound 1991] | 2 | 98 | 
Cl.O=C(NCc1cnc(-c2ccc(OCCC3CCCN3)cc2)s1)c1ccc2c(c1)NC(=O)c1ccccc1S2(=O)=O (centres unmarked) [compound 1996, 11-oxo-N-((2-(4-(2-(pyrrolidin-2-yl)ethoxy)phenyl)thiazol-5-yl)methyl)-10, 11-dihydrodibenzo [b, f] [1, 4] thiazepine-8-carboxamide 5,5-dioxide hydrochloride] | 17.4 | 100 | 
O=C(NCc1cnc(-c2ccc(C#CCCO)cc2)s1)c1ccc2c(c1)NC(=O)c1ccccc1S2(=O)=O [11002-A, N-((2-(4-(4-hydroxybut-1-yn-1-yl)phenyl)thiazol-5-yl)methyl)-11-oxo-10, 11-dihydrodibenzo [b, f] [1, 4] thiazepine-8-carboxamide 5,5-dioxide] | 1 | 106 | 
COc1c(C)cc(-c2ncc(CNC(=O)c3ccc4c(c3)NC(=O)c3ccccc3O4)s2)cc1C [1738-A] | 1.8 | 104 | 
O=C(NCc1cnc(-c2ccc(O)cc2)s1)c1ccc2c(c1)NC(=O)c1ccc(F)cc1S2 [compound 1747] | 3 | 95 | 
N#Cc1ccc(-c2ncc(CNC(=O)c3ccc4c(c3)NC(=O)c3ccccc3S4(=O)=O)s2)cc1Cl [compound 1817] | 0.3 | 97 | 

Structure (SMILES) | activity at 10 µM [1] [%] | AD38 Viability Normalized Result (cmpd/DMSO %) at 10 μM [2] [%] | AD38 Viral Load (%) (VL with cmpd/VL in DMSO control) at 10 μM [1]
Cc1c(C(=O)NCc2cnc(-c3ccc(OCCCN(C)C)cc3)s2)ccc2c1NC(=O)c1ccccc1S2 [C20-01] | 1.5 | 98 | 
O=C(NCc1cnc(-c2ccc(O)cc2Cl)s1)c1ccc2c(c1)NC(=O)c1ccccc1S2(=O)=O [compound 1668] | 23.4 | 106 | 
O=C(NCc1cnc(-n2cc(F)cn2)s1)c1ccc2c(c1)NC(=O)c1ccccc1S2(=O)=O [compound 11038] | 2 | 99 | 
CN(C)CCSc1ncc(CNC(=O)c2ccc3c(c2)NC(=O)c2ccccc2O3)s1 [compound 1617] | 2.2 | 101 | 
O=C(NCc1cnc(-c2ccc(OCCCN3CCC[C@H]3C(=O)O)cc2)s1)c1ccc2c(c1)NC(=O)c1ccccc1S2(=O)=O [compound 11106, (3-(4-(5-((5,5-dioxido-11-oxo-10, 11-dihydrodibenzo [b, f] [1, 4]thiazepine-8-carboxamido)methyl)thiazol-2-yl)phenoxy)propyl)-L-proline] | 3.3 | 97 | 
O=C(NCc1cnc(-c2nccs2)s1)c1ccc2c(c1)NC(=O)c1ccccc1S2(=O)=O [compound 1882] | 1 | 103 | 
O=C(O)c1ccc(-c2ncc(CNC(=O)c3ccc4c(c3)NC(=O)c3ccccc3S4(=O)=O)s2)cc1 [compound 1585, 4-(5-((5,5-dioxido-11-oxo-10, 11-dihydrodibenzo [b, f] [1, 4]thiazepine-8-carboxamido)methyl)thiazol-2-yl) benzoic acid] | 64.1 | 96 | 
N#Cc1ccc(-c2ncc(CNC(=O)c3ccc4c(c3)NC(=O)c3ccccc3O4)s2)c(F)c1 [compound 1826] | 11.8 | 91 | 
COC(=O)C1CCN(CCCOc2ccc(-c3ncc(CNC(=O)c4ccc5c(c4)NC(=O)c4ccccc4S5(=O)=O)s3)cc2)C1 (centres unmarked) [11107-A, methyl 1-(3-(4-(5-((5,5-dioxido-11-oxo-10, 11-dihydrodibenzo [b, f] [1, 4]thiazepine-8-carboxamido)methyl)thiazol-2-yl)phenoxy)propyl) pyrrolidine-3-carboxylate] |  | 100 | 7.7
O=C(NCc1cnc(-n2ccc(F)n2)s1)c1ccc2c(c1)NC(=O)c1ccccc1S2(=O)=O [compound 11045] | 0.6 | 94 | 
Cl.NCc1ccccc1-c1ncc(CNC(=O)c2ccc3c(c2)NC(=O)c2ccccc2S3(=O)=O)s1 [compound 1841, N-((2-(2-(aminomethyl)phenyl)thiazol-5-yl)methyl)-11-oxo-10, 11-dihydrodibenzo [b, f] [1, 4] thiazepine-8-carboxamide 5,5-dioxide hydrochloride] | 9.1 | 104 | 
O=C(NCc1cnc(-c2ccc(CCCCN3CCCCC3)cc2)s1)c1ccc2c(c1)NC(=O)c1ccccc1S2(=O)=O [compound 11055] | 4 | 94 | 
O=C(O)CSc1ncc(CNC(=O)c2ccc3c(c2)NC(=O)c2ccccc2S3(=O)=O)s1 [compound 1589, 2-((5-((5,5-dioxido-11-oxo-10, 11-dihydrodibenzo [b, f] [1, 4]thiazepine-8-carboxamido)methyl)thiazol-2-yl)thio) acetic acid] | 80 | 98 | 
CC1(C)CCN(c2ncc(CNC(=O)c3ccc4c(c3)NC(=O)c3ccccc3S4(=O)=O)s2)C1 [compound 1981] | 0.2 | 105 | 
O=C(NCc1cnc(-n2nccn2)s1)c1ccc2c(c1)NC(=O)c1ccccc1S2(=O)=O [compound 11048] | 1.2 | 103 | 
CN(C)CCCOc1ccc(-c2ncc(CNC(=O)c3ccc4c(c3)NC(=O)c3ccccc3S4(=O)=O)s2)nc1 [compound 11011, N-((2-(5-(3-(dimethylamino)propoxy)pyridin-2-yl)thiazol-5-yl)methyl)-11-oxo-10, 11-dihydrodibenzo [b, f] [1, 4] thiazepine-8-carboxamide 5,5-dioxide] | 5.3 | 98 | 
O=C(NCc1cnc(-c2ccc3[nH]cnc3c2)s1)c1ccc2c(c1)NC(=O)c1ccccc1S2(=O)=O [compound 1637] | 2.3 | 101 | 
CS(=O)(=O)c1ccc(-c2ncc(CNC(=O)c3ccc4c(c3)NC(=O)c3ccccc3O4)s2)cc1 [compound 1861] | 5.9 | 94 | 

Reference: patent US11814376B2, “Hepatitis b core protein modulators” (Assembly Biosciences, Inc., priority 2015, dated 2023)
